These results are taken from patent publication US8030336B2, “Nicotinamide-based kinase inhibitors” (YM Biosciences Australia Pty Ltd, priority 2002, dated 2011).

The structures appear in SMILES notation.

What all share (assay type): biochemical
The target of assay [1] is T1, Zap70 (Homo sapiens, UniProt P43403).
T1 sequence (P43403 338-600 limits assumed): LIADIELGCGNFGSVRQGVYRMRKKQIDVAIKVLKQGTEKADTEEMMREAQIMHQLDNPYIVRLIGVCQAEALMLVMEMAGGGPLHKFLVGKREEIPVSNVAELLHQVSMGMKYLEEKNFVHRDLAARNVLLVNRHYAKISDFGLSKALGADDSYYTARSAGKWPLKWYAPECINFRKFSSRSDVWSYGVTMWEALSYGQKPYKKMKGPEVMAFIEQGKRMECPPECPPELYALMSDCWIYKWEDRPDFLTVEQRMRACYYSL
The assay is described as follows: Zap70 kinase assay (ELISA or Alphascreen). Conditions: read-out: Zap70 inhibition of enzyme activity. As to the method:
(§1) Kinase assays were performed in a 96 well capture-based ELISA assay or in 384 well Optiplates (Packard) using an Alphascreen Protein Tyrosine Kinase kit. In either case using approximately 1.5 μg of affinity purified PTK domain in the presence of 50 mM HEPES, pH 7.5, 10 mM MgCl2, 150 mM NaCl and 10 μM-1 mM ATP. The biotinylated substrate biotin-EGPWLEEEEEAYGWMDF-NH2 (SEQ ID NO:9) (final concentration 5 μM) was used as substrate. In the ELISA assay tyrosine phosphorylation was quantitated following transfer to an avidin coated ELISA plate using peroxidase-linked anti-phosphotyrosine antibody PY20. In the Alphascreen assay, Alphascreen phosphotyrosine acceptor beads followed by streptavidin donor beads were added under subdued light. The ELISA plates were read on a BMG Fluorostar, the Alphascreen plates were read on a Packard Fusion Alpha. Inhibitors were added to the assays fifteen minutes prior to the addition of ATP. Inhibitors were added in aqueous […] concentrations never exceeding 1%.

For assay [2], the target named is fes (Homo sapiens, UniProt P07332). The assay is described as follows: fes kinase assay (ELISA or Alphascreen). Conditions: read-out: fes inhibition of enzyme activity. As to the method: as §1
Chain of fes (P07332 561-822 limits assumed, species assumed): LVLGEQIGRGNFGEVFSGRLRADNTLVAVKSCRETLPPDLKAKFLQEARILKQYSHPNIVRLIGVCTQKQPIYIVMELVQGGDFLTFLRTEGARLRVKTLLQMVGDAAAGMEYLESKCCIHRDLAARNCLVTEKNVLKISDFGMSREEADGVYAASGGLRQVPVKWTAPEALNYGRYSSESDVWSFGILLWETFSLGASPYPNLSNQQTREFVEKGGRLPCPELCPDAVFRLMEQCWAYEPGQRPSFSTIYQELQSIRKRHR
In assay [3] the target is T2, human JAK2 (Homo sapiens, UniProt O60674).
T2 construct: The kinase domain of human JAK2 was amplified from U937mRNA; His tag (from the pFastBac HTc vector) (N); made in house; host or cells: baculovirus; Sf9 for virus, High Five insect cells for production
T2 sequence (O60674 849-1124 limits assumed): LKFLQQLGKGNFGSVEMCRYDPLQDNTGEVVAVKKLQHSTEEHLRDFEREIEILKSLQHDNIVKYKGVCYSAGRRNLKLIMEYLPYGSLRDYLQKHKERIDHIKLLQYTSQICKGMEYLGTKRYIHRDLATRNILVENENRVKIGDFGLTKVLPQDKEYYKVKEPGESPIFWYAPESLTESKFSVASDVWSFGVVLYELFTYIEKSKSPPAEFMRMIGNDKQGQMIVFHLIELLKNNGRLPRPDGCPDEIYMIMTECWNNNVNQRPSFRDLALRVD
The assay is described as follows: JAK2 kinase assay (ELISA or Alphascreen). The following applies: read-out: Jak2 inhibition of enzyme activity.
Description: The kinase domain of human JAK2 was amplified from U937mRNA using the polymerase chain reaction with the following primers: […]
JAK2 PCR products were doped into the pFastBac HTc expression vector (Gibco) via the Sal I and Not I sites. The JAK2 plasmid was than transformed into competent DH10Bac cells (Gibco), and the recombinant baculovirus produced prepared for transfection into Sf9 insect cells.
(§2) Baculovirus preparations from each of the JAK family members were infected into five liters of High Five cells (Invitrogen) grown in High Five serum free medium (Invitrogen) to a cell density of approximately 1-2×10^6 cells/ml. Cells are infected with virus at a MOI of 0.8-3.0. Cells were harvested and lysed. JAK kinase domains were purified by affinity chromatography on a Probond (Invitrogen) nickel chelate affinity column.
as §1

Assay [4] addresses hck (Homo sapiens, UniProt P08631). The assay is described as follows: hck kinase assay (ELISA or Alphascreen). Conditions: read-out: hck inhibition of enzyme activity. The protocol: as §1
Assay [5] concerns the target T3, abl (Homo sapiens, UniProt P00519).
T3 sequence (P00519 242-493 limits assumed): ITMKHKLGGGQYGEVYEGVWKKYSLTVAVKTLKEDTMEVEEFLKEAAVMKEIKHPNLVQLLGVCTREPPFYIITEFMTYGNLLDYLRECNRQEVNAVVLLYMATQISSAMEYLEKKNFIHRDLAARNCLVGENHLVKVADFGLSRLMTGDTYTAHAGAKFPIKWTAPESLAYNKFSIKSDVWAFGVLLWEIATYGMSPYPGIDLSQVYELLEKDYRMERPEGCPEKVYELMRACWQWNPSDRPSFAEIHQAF
The assay is described as follows: abl kinase assay (ELISA or Alphascreen). Conditions: read-out: abl inhibition of enzyme activity. As to the method: as §1

Assay [6] has as its target T4, human JAK3 (Homo sapiens, UniProt P52333).
T4 construct: The kinase domain of human JAK3 was amplified from U937mRNA; His tag (from the pFastBac HTb vector) (N); made in house; host or cells: baculovirus; Sf9 for virus, High Five insect cells for production
As to the kind of experiment: JAK3 kinase assay (ELISA or Alphascreen). The following applies: read-out: Jak3 inhibition of enzyme activity.
Description: The kinase domain of human JAK3 was amplified from U937mRNA using the polymerase chain reaction with the following primers: […]
JAK3 PCR products were cloned into the pFastBac HTb expression vector (Gibco) via the Xho I and Kpn I sites. The JAK3 plasmid was then transformed into competent DH10Bac cells (Gibco), and the recombinant baculovirus produced prepared for transfection into Sf9 insect cells.
as §2, §1

The target of assay [7] is T5, fms (Homo sapiens, UniProt P07333).
T5 sequence (P07333 582-910 limits assumed): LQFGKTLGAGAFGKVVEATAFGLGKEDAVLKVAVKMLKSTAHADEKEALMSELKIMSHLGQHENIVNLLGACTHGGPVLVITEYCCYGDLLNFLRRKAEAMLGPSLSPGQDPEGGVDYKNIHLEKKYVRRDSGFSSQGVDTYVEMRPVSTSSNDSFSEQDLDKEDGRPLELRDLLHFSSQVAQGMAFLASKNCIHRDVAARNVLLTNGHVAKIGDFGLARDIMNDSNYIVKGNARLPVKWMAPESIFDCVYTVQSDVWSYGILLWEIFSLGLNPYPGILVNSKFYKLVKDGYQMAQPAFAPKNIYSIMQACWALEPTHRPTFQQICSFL
As to the kind of experiment: fms kinase assay (ELISA or Alphascreen). Conditions: read-out: fms inhibition of enzyme activity. The protocol: as §1

Chain of hck (P08631 262-515 limits assumed, species assumed): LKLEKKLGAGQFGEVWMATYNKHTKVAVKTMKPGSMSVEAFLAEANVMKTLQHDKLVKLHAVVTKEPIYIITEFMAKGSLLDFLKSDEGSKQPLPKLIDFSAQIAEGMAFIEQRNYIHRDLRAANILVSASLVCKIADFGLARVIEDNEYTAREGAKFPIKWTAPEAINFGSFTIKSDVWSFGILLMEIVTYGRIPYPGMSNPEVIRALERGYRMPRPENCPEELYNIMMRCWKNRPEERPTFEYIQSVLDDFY
T4 sequence (P52333 822-1111 limits assumed): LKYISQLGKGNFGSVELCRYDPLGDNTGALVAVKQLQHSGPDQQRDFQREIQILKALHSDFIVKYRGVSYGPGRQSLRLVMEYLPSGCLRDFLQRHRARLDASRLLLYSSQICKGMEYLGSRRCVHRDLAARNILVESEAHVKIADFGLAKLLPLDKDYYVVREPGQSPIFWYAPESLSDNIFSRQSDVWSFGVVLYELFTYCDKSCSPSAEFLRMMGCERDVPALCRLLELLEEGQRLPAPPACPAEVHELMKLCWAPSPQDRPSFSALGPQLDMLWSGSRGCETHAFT

As for `Cc1cc(-c2cncc(C(=O)N[C@H](C)c3ccccc3)c2)cc(C)c1O`, the inhibition at 10 µM in assay [1], in assay [2], in assay [3], in assay [4] and in assay [5] was less than 50% throughout.
In the case of `C[C@@H](NC(=O)c1cncc(-c2ccc(O)cc2)c1)c1ccccc1`, the inhibition at 10 µM in assay [1], in assay [2], in assay [3], in assay [4] and in assay [5] was less than 50% in each case.
For `O=C(NCCc1ccccc1)c1cncc(-c2ccc3c(c2)OCO3)c1`, the inhibition at 10 µM in assay [1], in assay [6], in assay [2], in assay [3], in assay [4] and in assay [5] was less than 50% in each case.
`Cc1ccccc1NC(=O)c1cncc(-c2cccs2)c1`: the inhibition at 10 µM was less than 50% in assay [1]; less than 50% in assay [6]; less than 50% in assay [2]; less than 50% in assay [3]; not below 50% in assay [4]; less than 50% in assay [5].
`COc1cccc(-c2cncc(C(=O)N[C@H](C)c3ccccc3)c2)c1`: the inhibition at 10 µM in assay [1], in assay [6], in assay [2], in assay [3], in assay [4] and in assay [5] was less than 50% each time.
For the compound `O=C(NCc1ccc(Cl)c(Cl)c1)c1cncc(-c2ccc(O)cc2)c1`, the inhibition at 10 µM in assay [1], in assay [6], in assay [2], in assay [3], in assay [4] and in assay [5] was less than 50% each time.
As for `COc1ccc(NC(=O)c2cncc(-c3ccc(O)cc3)c2)c(OC)c1`, the inhibition at 10 µM in assay [1], in assay [6], in assay [3], in assay [4] and in assay [5] was less than 50% each time.
In the case of `O=C(NCc1cccc(F)c1)c1cncc(-c2ccc3c(c2)OCO3)c1`, the inhibition at 10 µM in assay [1], in assay [6], in assay [2], in assay [3], in assay [4] and in assay [5] was less than 50% in each case.
On to `O=C(NCCO)c1cncc(-c2ccc3c(c2)OCO3)c1`, for which the inhibition at 10 µM in assay [1], in assay [6], in assay [3], in assay [4] and in assay [5] was less than 50% throughout.
Take `COc1cc(CNC(=O)c2cncc(-c3ccc4c(c3)OCO4)c2)cc(OC)c1`: the inhibition at 10 µM in assay [1], in assay [2], in assay [3], in assay [4] and in assay [5] was less than 50% in each case.
Take `Cc1ccccc1NC(=O)c1cncc(-c2ccc(O)cc2)c1`: the inhibition at 10 µM in assay [1] is less than 50%; in assay [7] it was not below 50%; in assay [6], less than 50%; in assay [2] it was less than 50%; in assay [3], less than 50%; in assay [4], not below 50%.
With `CN(Cc1ccccc1)C(=O)c1cncc(-c2ccc(O)cc2)c1`, the inhibition at 10 µM in assay [1], in assay [7], in assay [6], in assay [2], in assay [3] and in assay [4] was less than 50% throughout.
Take `CC(C)C(CO)NC(=O)c1cncc(-c2cccs2)c1` (centres unmarked): the inhibition at 10 µM in assay [1], in assay [7], in assay [6], in assay [2], in assay [3] and in assay [4] was less than 50% each time.
For `COc1cc(-c2cncc(C(=O)NC(C)C)c2)c(Cl)c(OC)c1OC`, the inhibition at 10 µM in assay [1], in assay [7], in assay [6], in assay [2], in assay [3] and in assay [4] was less than 50% in each case.
In the case of `O=C(NCc1cccc(F)c1)c1cncc(-c2ccc(O)cc2)c1`, the inhibition at 10 µM in assay [1], in assay [6], in assay [2], in assay [4] and in assay [5] was less than 50% in each case.
On to `O=C(NCc1ccc(N2CCOCC2)cc1)c1cncc(-c2cccs2)c1`, for which the inhibition at 10 µM in assay [1], in assay [2], in assay [3], in assay [4] and in assay [5] was less than 50% throughout.
Take `COc1cccc(-c2cncc(C(=O)NCc3cccnc3)c2)c1`: the inhibition at 10 µM in assay [1] is not below 50%; in assay [7], less than 50%; in assay [6], less than 50%; in assay [2], less than 50%; in assay [3] it was less than 50%; in assay [4], less than 50%.
Regarding `O=C(NCCc1ccccc1)c1cncc(-c2ccc(O)cc2)c1`, the inhibition at 10 µM in assay [1], in assay [7], in assay [6], in assay [2], in assay [3] and in assay [4] was less than 50% each time.
On to `COc1cc(CNC(=O)c2cncc(-c3cc(C)c(O)c(C)c3)c2)cc(OC)c1`, for which the inhibition at 10 µM in assay [1] was less than 50%; in assay [7], not below 50%; in assay [6], less than 50%; in assay [2], less than 50%; in assay [3], less than 50%; in assay [4], less than 50%.
With `COc1cc(-c2cncc(C(=O)NCCc3ccccc3)c2)c(Cl)c(OC)c1OC`, the inhibition at 10 µM in assay [1], in assay [7], in assay [6], in assay [2], in assay [3] and in assay [4] was less than 50% throughout.
As to `O=C(NCc1ccncc1)c1cncc(-c2cccs2)c1`, the inhibition at 10 µM in assay [1], in assay [7], in assay [6], in assay [2], in assay [3] and in assay [4] was less than 50% each time.
